From US20150024934A1, “CONTROLLING CHARCOAL ROT WITH FLUTRIAFOL” (CHEMINOVA A/S, priority 2013, published 2015)

Tests used:
Macrophomina phaseolina = test: Mycelial colony growth on flutriafol-amended PDA; assay type: cell-based; conditions: 1x; for Dia (mm) 1 day: untreated 28.2; for Dia (mm) 3 days / Dia (mm) 5 days / Dia (mm) 7 days: untreated 40
Method: Inhibition of Macrophomina phaseolina (charcoal rot) was tested in the following example: The flutriafol composition used in the example was TOPGUARD (125 g/L flutriafol SC), a commercially available product.
Each pathogen was grown out on fresh potato dextrose agar (commercial PDA), assessed and used to seed 2× autoclaved rice for inoculums development. At 7-10 days, two infested rice grains with the pathogen was placed at equal distances on flutriafol-amended PDA and incubated at 27-29° C. Mycelial colony diameter from each rice grain was measured at 1, 3, 5 and 7 days from grain placement. The included tables and data sets illustrate the differences in mycelia growth in response to various concentrations of the fungicide.

charcoal rot = test: Strawberry field trial for control of charcoal rot (infected plants, yield); assay type: in vivo; conditions: applied either surface incorporated or via buried drip

## OC(Cn1cncn1)(c1ccc(F)cc1)c1ccccc1F (racemic) [flutriafol, (RS)-2,4′-difluoro-α-(1H-1,2,4-triazol-1-ylmethyl)benzhydryl alcohol]
Macrophomina phaseolina; 0.01 ppm
  Dia (mm) 1 day: 25.5 mm
  Dia (mm) 3 days: 40 mm
  Dia (mm) 5 days: 40 mm
  Dia (mm) 7 days: 40 mm
Macrophomina phaseolina; 0.1 ppm
  Dia (mm) 1 day: 22.3 mm
  Dia (mm) 3 days: 40 mm
  Dia (mm) 5 days: 40 mm
  Dia (mm) 7 days: 40 mm
Macrophomina phaseolina; 1 ppm
  Dia (mm) 1 day: 13.9 mm
  Dia (mm) 3 days: 38.6 mm
  Dia (mm) 5 days: 40 mm
  Dia (mm) 7 days: 40 mm
Macrophomina phaseolina; 10 ppm
  Dia (mm) 1 day: 0 mm
  Dia (mm) 3 days: 3.5 mm
  Dia (mm) 5 days: 3.5 mm
  Dia (mm) 7 days: 5.1 mm
Macrophomina phaseolina; 100 ppm
  Dia (mm) 1 day: 0 mm
  Dia (mm) 3 days: 0 mm
  Dia (mm) 5 days: 0 mm
  Dia (mm) 7 days: 0 mm
Macrophomina phaseolina; 250 ppm, mycelial colony diameter, TOPGUARD 125 g/L SC in PDA
  Dia (mm) 1 day: 0 mm
Macrophomina phaseolina; 250 ppm
  Dia (mm) 3 days: 0 mm
  Dia (mm) 5 days: 0 mm
  Dia (mm) 7 days: 0 mm
Charcoal rot
  effect on charcoal rot: significantly reduced charcoal rot
